Experimental data reported in patent publication US11684593B2 (GENEHEAL BIOTECHNOLOGY CO., LTD., priority 2017, dated 2023).

How the values were obtained:
[1] = tested on: lung cancer cell strain A549; test: cells; conditions: Homo sapiens, A549, 48 h
[2] = tested on: breast cancer cell strain MD231; test: cells; conditions: 48 h
[3] = molecular target: PAICS (Homo sapiens, UniProt P22234)
[4] = tested on: lung cancer cell strain H1299; test: cells; conditions: Homo sapiens, NCI-H1299, 48 h
[5] = tested on: oncogene myc; conditions: Western Blot, FIG. 4
[6] = tested on: breast cancer cell strain MD468; test: cells; conditions: 48 h

Chain of PAICS (P22234 whole entry): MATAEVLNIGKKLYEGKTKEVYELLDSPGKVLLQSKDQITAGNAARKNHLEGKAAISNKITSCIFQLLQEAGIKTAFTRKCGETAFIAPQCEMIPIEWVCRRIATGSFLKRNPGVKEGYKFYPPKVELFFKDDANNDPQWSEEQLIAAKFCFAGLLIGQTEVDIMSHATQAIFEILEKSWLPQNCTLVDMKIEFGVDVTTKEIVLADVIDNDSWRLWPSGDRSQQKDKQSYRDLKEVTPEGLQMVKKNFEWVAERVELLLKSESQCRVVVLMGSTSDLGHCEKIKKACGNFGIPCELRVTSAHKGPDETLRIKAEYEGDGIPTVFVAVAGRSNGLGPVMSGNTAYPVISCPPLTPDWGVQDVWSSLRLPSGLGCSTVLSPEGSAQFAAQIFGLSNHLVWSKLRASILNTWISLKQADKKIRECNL

## NCCCNCCCCNCCCN [spermine]
[1]
  IC50: 117 µM
[2]
  IC50: 3.55 µM
[3]
  inhibition of the accumulation of SAICAR: up to 71.1%
[4]
  IC50: 25.2 µM
[5]
  expression of oncogene myc: significantly down-regulated
[6]
  IC50: 38 µM
